Values after ≈ are worked out from the molar mass of the structure shown. Like-named read-outs stand apart in the source and are kept apart here.
Columns and labels:
[1] = tested on: human SK—OV-3 ovarian cancer cells; assay: Cellular Activity Assay (cytotoxicity, crystal violet); assay type: cell-based
Excerpt: To test the activity of compounds, two complimentary assays were used as described below. The Biochemical PRX3 Inhibition Assay tests the ability of each compound to crosslink PRX3 in a simple, in vitro system. In the Cellular Activity Assay, we are testing the ability of compounds to kill SK—OV-3 ovarian cancer cells.
The Cellular Activity Assay measures the EC50 of each compound in human SK—OV-3 ovarian cancer cells TS to be taken into the cell, transported to the mitochondria, and crosslink PRX3.
The cytotoxicity of compounds was measured as described in Nelson et al. (2021) Antioxidants (Basel) 10, 150; Cunniff et al. (2015) PloS one 10, e0127310; and Newick et al. (2012) PloS one 7, e39404. SK—OV-3 is an adherent, epithelial, adenocarcenoma cell line obtained from ATCC (ref #: HTB-77). SK—OV-3 cells are resistant to the commonly used chemotherapeutics, cis-platinum and doxorubicin. For this […], SK—OV-3 cells were plated in a 96-well plate. After 24 h recovery, the cells were treated for 48 hr with multiple concentrations of each compound ranging from 0.1-100 μM.
Cells were washed with PBS to remove dead cells and the remaining live cells were fixed with 3.0% formaldehyde and stained with 0.1% crystal violet. The amount of crystal violet was determined by reading the absorbance at 540 nm (crystal violet dye dissolved in 100% methanol) using a plate reader. The signal for crystal violet dye is proportional to the biomass of remaining live cells. GraphPad Prism9 software was used to calculate the effective inhibitory concentration (EC50) of test compounds. Results for each compound, are normalized to the amount of cells in control wells treated with the equivalent concentration of DMSO (negative control). TS or Compound A (Reference Compound) were included in each set of assays as a positive control.

[2] = target: T1, purified human PRX3 (Homo sapiens, UniProt P30048); assay: Biochemical PRX3 Inhibition Assay (crosslink by SDS PAGE + mono-adduct by MALDI-TOF MS); conditions: incubated 1-2 hr at 37° C., hydrogen peroxide added
T1 construct: made in house
T1 sequence (P30048 62-256): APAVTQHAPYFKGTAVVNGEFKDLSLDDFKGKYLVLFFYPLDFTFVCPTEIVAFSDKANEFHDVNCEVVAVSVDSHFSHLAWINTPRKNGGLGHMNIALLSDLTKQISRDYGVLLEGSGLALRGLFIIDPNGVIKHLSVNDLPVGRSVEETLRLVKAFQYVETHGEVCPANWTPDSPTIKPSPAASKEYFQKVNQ
Protocol: This assay tests the ability of each compound to form a covalent adduct with PRX3. The assay is performed as described in Nelson et al. (2021) Antioxidants (Basel) 10, 150; and Cunniff et al. (2015) PloS one 10, eO127310, and follows the appearance of non-reducible PRX3 crosslinks by SDS PAGE gel electrophoresis and follows the appearance of single PRX3 adducts by mass spectrometry. For this assay, purified human PRX3, hydrogen peroxide (the PRX3 substrate) and all the components required to enable PRX3 to catalytically cycle (thioredoxin-thioredoxin reductase-NAPDH system) are included (details below).
The biochemical PRX3 Inhibition assay contains 100 µM PRX3, 50 µM human TRX2, 0.5 μM mouse thioredoxin reductase, and a NADPH regenerating system composed of 3.2 mM glucose 6-phosphate, 3.2 U/ml glucose 6-phosphate dehydrogenase and 0.4 mM NADPH. Samples are incubated for 1-2 hr at 37° C. with either 0.2 mM TS (positive control), compounds or an equivalent volume of DMSO (negative control). During this incubation, hydrogen peroxide is added to induce turnover of PRX3. Reactions are stopped by the addition of a buffer containing 100 mM dithiolthreitol (to break disulfide bonds) and SDS (detergent to denature proteins). NADPH, Glucose 6-Phosphate, and glucose 6-phosphate dehydrogenase were purchased from Sigma Aldrich. PRX3, thioredoxin, and thioredoxin reductase were all purified to >98% purity in the Lowther laboratory according to protocols referenced in Nelson et al. (2021) Antioxidants (Basel) 10, 150; and Cunniff et al. (2015) PloS one 10, e0127310.
To measure the amount of PRX3 crosslink, proteins in the reaction were separated by SDS-polyacrlyamide gel electrophoresis and stained for total protein using GelCode Blue (Life Technologies). The amount of unmodified PRX3 and TS-PRX3 crosslink was measured by densiometric analysis of the signal for the PRX3 band running at the MW of a PRX3 crosslink (˜46 kDa) compared to the PRX3 signal at the MW of the un-modified PRX3 (˜23 kD).
To measure covalent adduct formation on a single PRX3 monomer, each reaction was exchanged into a mass spectrometry compatible buffer containing 40 mM ammonium citrate, pH 8.3 made in HPLC water. Sample was mixed 1:1 with a matrix solution containing 30 mg/mL sinapinic acid in 70% (vol/vol) acetonitrile, 0.2% formic acid and spotted to onto the sample plate. PRX3 mass was measured by MALDI-TOF MS analysis on a Bruker Daltonics MALDI-TOF MS spectrometer. Spectra were analyzed in FLEXAnalysis Software. The intensity of the reduced PRX3 peak (SH) and intensity of the analog adduct peak was determined and corrected for background signal at the adduct peak in the DMSO control. The fraction of single analog adduct in the monomer peak was determined by dividing the intensity of the adduct peak by the summed intensity of the SH and adduct peaks.

[3] = Solubility Assay; assay type: physicochemical; parameters: key: +++: >1 mM; ++: 0.1-1 mM; +: <0.1 mM; −: polymerized; n.d.: not detectable/not measurable; conditions: 20 mM HEPES, 100 mM NaCl, pH 7.5, 18-24 hours at ambient temperature, HPLC
Protocol: A 20 mM stock solution was made for each compound in DMSO. To measure solubility, 0.03-0.05 mL of the stock was added to 0.27 mL 20 mM HEPES, 100 mM NaCl, pH 7.5. The solution was mixed and rotated 18-24 hours at ambient temperature. The next day, solutions were centrifuged for 10 min at 20,000×g at 24° C. to remove insoluble, solid material. Next, 100 μL of the supernatant containing the soluble compound was added to 900 μL DMSO and High Performance Liquid Chromatography was performed as described in Table 1 and either HPLC gradient 1 (Table 2) for HPLC gradient 2 (Table 3). For each analog, a 200 μM standard and a 20 μM standard were prepared and run in parallel (standards were dissolved completely in 100% DMSO). The amount of compound in the experimental sample was calculated by comparing the area under the curve for compound peak to the area for the closest standard and correcting for dilution.

[4] = tested on: Enterococcus hirae (ATCC #10541); assay: Antimicrobial Activity Assay; assay type: cell-based; conditions: for MIC: Enterococcus hirae
Protocol: The overnight growth was then diluted into growth media to make a single solution of E. hirae with a final optical density at 600 nm=0.02 AU. A 20 mM stock solution of Thiostrepton in DMSO was made and used to make multiple dilutions of TS in DMSO. Each TS dilution (0.1 mL) was then added to a test tube containing 10 mL of the diluted E. hirae and grown at 37° C. overnight while shaking at 180 rpm. The next morning, each tube was visually inspected to determine if the cells grew. Final concentrations tested were 0.120, 0.090, 0.075, 0.060, 0.045, 0.030, and 0.015 μM TS. […] Three replicates were made on three separate days (n=9). […] For TS analogs, the dilute E. hirae was treated with 20 µM final concentration of each analog (three replicates each). […] DMSO was used as a positive control (complete cell growth) and 20 µM thiostrepton was used as a negative control.

[5] = tested on: 578 cancer cells lines; conditions: of 578 cancer cells lines tested; cited from earlier work
[6] = HEPES/NaCl buffer, aqueous with cosolvent or surfactant or cyclodextrin, kinetic from dmso stock, read-out: Solubility
[7] = ATCC10541, read-out: Antimicrobial Activity
[8] = SK—OV-3 cells, treated 48 hr, 0.1-100 μM, crystal violet, read-out: EC50
[9] = ATCC10541, E. hirae, overnight growth at 37° C., read-out: Antimicrobial Activity

Row | SMILES | PRX3 Inhibition (Crosslink + Mono-adduct) [2] | solubility [3, 6] [µM] | MIC [4, 9] [µM] | EC50 [1, 8] [µM] | also measured
1 | C=C(NC(=O)c1cn(-c2ccccc2)cn1)C(=O)NC(=C)C(=O)OC [Compound 1, Methyl 2-(2-(1-phenyl-1H-imidazole-4-carboxamido)acrylamido)acrylate] | +++ (>90%) | < 100 |  |  | EC50 ([1]; SK-OV-3, 48 h): 1 to 10 µM; MIC [4, 7]: > 20 µM
2 | C=C(NC(=O)c1cnn(-c2ccccc2)c1)C(=O)NC(=C)C(=O)OC [Compound 2, Methyl 2-(2-(1-phenyl-1H-pyrazole-4-carboxamido)acrylamido)acrylate] | ++ (50-90%) | > 1000 | > 20 | 10 to 25 | 
3 | C=C(NC(=O)OCC1CCN(C(=O)OC(C)(C)C)CC1)C(=O)NC(=C)C(=O)OC [Compound 3, Tert-butyl 4-(5,8-dimethylene-3,6,9-trioxo-2,10-dioxa-4,7-diazaundecyl)piperidine-1-carboxylate] | + (5-50%) |  |  |  | solubility [3]: −
4 | C=C(NC(=O)C(=C)NC(=O)c1csc(C2=N[C@@H]3c4csc(n4)[C@H]4NC(=O)c5csc(n5)[C@H]([C@](C)(O)[C@@H](C)O)NC(=O)[C@H]5CSC(=N5)/C(=C/C)NC(=O)[C@H]([C@@H](C)O)NC(=O)c5csc(n5)[C@]3(CC2)NC(=O)[C@H](C)NC(=O)C(=C)NC(=O)[C@H](C)NC(=O)[C@H]([C@@H](C)CC)N[C@@H]2C=Cc3c([C@H](C)O)cc(nc3[C@H]2O)C(=O)O[C@@H]4C)n1)C(N)=O [Thiostrepton, reference compound] | ++ (50-90%) |  |  |  | EC50 ([1]; SK-OV-3, 48 h): 1 to 10 µM; solubility ([3]; aqueous with cosolvent or surfactant or cyclodextrin, kinetic from dmso stock, read-out: Solubility): < 100 µM; TS concentrations at which complete growth was observed ([4]; E. hirae, overnight at 37° C., visual inspection, n=9): ≤ 0.030 µM; MIC [4, 7]: 0.02 to 0.2 µM (≈ 0.0333 to 0.333 µg/mL); MIC ([4]; ATCC10541, read-out: TS concentrations at which no growth was observed (MIC determination)): ≥ 0.045 µM; tumor cells lines in which meaningful efficacy was shown [5]: 403

Continued, in another order:

Row | PRX3 Inhibition (Crosslink + Mono-adduct) [2] | solubility [3, 6] [µM] | MIC [4, 9] [µM] | SMILES | EC50 [1, 8] [µM] | also measured
5 | ++ (50-90%) | > 1000 | > 20 | C=C(NC(=O)OC1CCN(C(=O)OC(C)(C)C)CC1)C(=O)NC(=C)C(=O)OC [Compound 4, Tert-butyl 4-(((3-((3-methoxy-3-oxoprop-1-en-2-yl)amino)-3-oxoprop-1-en-2-yl)carbamoyl)oxy)piperidine-1-carboxylate] | > 100 | 
6 | ++ (50-90%) | < 100 | > 20 | C=C(NC(=O)c1cn(C2CCN(C(=O)OC(C)(C)C)CC2)nn1)C(=O)NC(=C)C(=O)OC [Compound 5, Tert-butyl 4-(4-((3-((3-methoxy-3-oxoprop-1-en-2-yl)amino)-3-oxoprop-1-en-2-yl)carbamoyl)-1H-1,2,3-triazol-1-yl)piperidine-1-carboxylate] | 1 to 10 | 
7 | +++ (>90%) | > 1000 | > 20 | C=C(NC(=O)c1ccn(C2CCN(C(=O)OC(C)(C)C)CC2)n1)C(=O)NC(=C)C(=O)OC [Compound 6, Tert-butyl 4-(3-((3-((3-methoxy-3-oxoprop-1-en-2-yl)amino)-3-oxoprop-1-en-2-yl)carbamoyl)-1H-pyrazol-1-yl)piperidine-1-carboxylate] | 25 to 100 | 
8 |  | < 100 |  | C=C(NC(=O)c1csc(-c2ccc(NC(=O)CCCCCBr)cc2)n1)C(=O)NC(=C)C(=O)OC [Compound A, Methyl 2-(2-(2-(4-(6-bromohexanamido)phenyl)thiazole-4-carboxamido)acrylamido)acrylate, reference compound] |  | Antimicrobial Activity ([4]; E. hirae, overnight growth at 37° C.): − (>20 μM)
